PMC10247784, “Physiological activation of human and mouse bitter taste receptors by bile acids” (Communications Biology, 2023)

Biological target: T1, mouse Tas2r126 (Mus musculus, UniProt P59532)
T1 construct: expressed in transfected cells; host or cells: HEK293T-Gα16gust44
T1 sequence (P59532 1-308): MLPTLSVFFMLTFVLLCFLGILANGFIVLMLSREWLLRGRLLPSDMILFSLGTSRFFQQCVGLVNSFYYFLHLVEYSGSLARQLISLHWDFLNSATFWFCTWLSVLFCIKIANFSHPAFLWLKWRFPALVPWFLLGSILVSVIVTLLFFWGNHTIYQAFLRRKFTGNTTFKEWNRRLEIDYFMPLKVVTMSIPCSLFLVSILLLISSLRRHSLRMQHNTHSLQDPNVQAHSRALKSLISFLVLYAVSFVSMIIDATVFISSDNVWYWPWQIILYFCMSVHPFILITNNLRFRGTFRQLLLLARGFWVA
Assay: Calcium imaging assay (FLIPR), HEK293T-Gα16gust44 cells transfected with mouse Tas2r126
Assay type: cell-based
Settings: for Δ F/F: Tas2r126
Description: This set of bile acids was chosen because of their commercial availability in high purities, their diversity within the class of bile acids and their previous detection and quantitation in human blood. Stock solutions were prepared in DMSO.
As basal growth medium for the HEK293T-Gα16gust44 cell line[17],[59] served Dulbecco’s modified eagle medium (DMEM) (Thermo Fisher Scientific, Darmstadt, Germany) supplemented with 10 % fetal bovine serum (Sigma-Aldrich, Steinheim, Germany), 2 mM L-glutamine (Sigma-Aldrich, Steinheim, Germany), 100 units/ml penicillin (Sigma Aldrich, Steinheim, Germany) and 100 µg/ml streptomycin (Sigma Aldrich, Steinheim, Germany). Growth conditions were 37 °C, 5 % CO2 and saturated air-humidity[60].
HEK293T-Gα16gust44 cells were seeded on poly-D-lysine (10 µg/ml) coated 96-well plates to reach a confluence of 40-60 % the next day. For transient transfection 150 ng of plasmid DNA containing the receptor of interest and 0.3 µl lipofectamine 2000 (Thermo Fisher Scientific, Darmstadt, Germany) per well were used and transfection took place according to the manual of lipofectamine 2000. […] The empty vector DNA (mock) was transfected as negative control[14],[41].
Cells were loaded using the calcium-sensitive fluorescent dye Fluo-4-AM (Abcam, Cambridge, Great Britain) in the presence of 2.5 mM probenecid (Sigma-Aldrich, Steinheim, Germany) the day after transfection[13],[41]. 1 h after loading, cells were washed with C1 buffer using a BioTek Cell Washer, incubated in the dark for half an hour and washed again. For automated agonist application and measurement of fluorescence changes, a FLIPR^TETRA device (Molecular Devices, San José, United States) was used. Viability of cells was tested by application of 100 nM Somatostatin 14 (Bachem, Bubendorf, Switzerland)[42].
Measured data were negative control corrected by subtracting the signal of the mock-transfected cells and exported to Microsoft Excel using the FLIPR software ScreenWorks 4.2. In Microsoft Excel software, standardization of maximum fluorescence intensities to the basal fluorescence and normalization to the buffer-only control was done to calculate the relative fluorescence changes (ΔF/F).
Initial screening experiments performed in duplicate wells were confirmed by at least one replication and representative traces were selected for display. All dose-response relationships were determined by three independent experiments (biological replicates) performed in duplicates (technical replicates). Threshold concentrations, defined as lowest substance concentrations leading to statistically significant elevated fluorescence changes in receptor-transfected cells compared with empty vector-transfected cells, were determined using SigmaPlot with Student’s t-test to evaluate statistical significance (p < 0.01).

Δ F/F (conc. 0,01 mM): 0.008892
Δ F/F (conc. 0,1 mM): 0.01338
Δ F/F (conc. 0,03 mM): 0.009319
Δ F/F (conc. 0,3 mM): 0.02767
Δ F/F (conc. 0,001 mM): 0.01077
Δ F/F (conc. 1 mM): 0.17
Δ F/F (conc. 0,003 mM): 0.01208
RLU (Time 0 s): 0 RLU
RLU (Time 2 s): -8.029 RLU
RLU (Time 4 s): 1.1384 RLU
RLU (Time 6 s): 10.4148 RLU
RLU (Time 8 s): -13.1228 RLU
RLU (Time 12 s): 17.4885 RLU
RLU (Time 14 s): -0.7257 RLU
RLU (Time 16 s): -10.5283 RLU
RLU (Time 18 s): 16.8146 RLU
RLU (Time 18.781 s): 23.6211 RLU
RLU (Time 20.781 s): -40.338 RLU
RLU (Time 22.781 s): 22.3326 RLU
RLU (Time 24.781 s): 63.7084 RLU
RLU (Time 26.781 s): 76.1804 RLU
RLU (Time 28.781 s): 137.207 RLU
RLU (Time 30.781 s): 214.617 RLU
RLU (Time 32.781 s): 318.834 RLU
RLU (Time 34.781 s): 384.223 RLU
RLU (Time 36.781 s): 455.203 RLU
RLU (Time 38.781 s): 531.38 RLU
RLU (Time 40.781 s): 571.264 RLU
RLU (Time 42.781 s): 599.999 RLU
RLU (Time 44.781 s): 648.8 RLU
RLU (Time 46.781 s): 709.576 RLU
RLU (Time 48.781 s): 742.486 RLU
RLU (Time 50.781 s): 750.019 RLU
RLU (Time 52.781 s): 771.673 RLU
RLU (Time 54.781 s): 762.339 RLU
RLU (Time 56.781 s): 801.528 RLU
RLU (Time 58.781 s): 778.328 RLU
RLU (Time 60.781 s): 814.918 RLU
RLU (Time 62.781 s): 813.898 RLU
RLU (Time 64.781 s): 822.442 RLU
RLU (Time 66.781 s): 857.883 RLU
RLU (Time 68.781 s): 851.231 RLU
RLU (Time 70.781 s): 849.562 RLU
RLU (Time 72.781 s): 871.931 RLU
RLU (Time 74.781 s): 863.674 RLU
RLU (Time 76.781 s): 844.593 RLU
RLU (Time 78.781 s): 886.207 RLU
RLU (Time 80.781 s): 865.546 RLU
RLU (Time 82.781 s): 883.065 RLU
RLU (Time 84.781 s): 898.032 RLU
RLU (Time 86.781 s): 896.748 RLU
RLU (Time 88.781 s): 900.918 RLU
RLU (Time 90.781 s): 874.944 RLU
RLU (Time 92.781 s): 885.691 RLU
RLU (Time 94.781 s): 894.456 RLU
RLU (Time 96.781 s): 901.176 RLU
RLU (Time 98.781 s): 886.538 RLU
RLU (Time 100.781 s): 892.555 RLU
RLU (Time 102.781 s): 881.874 RLU
RLU (Time 104.781 s): 894.645 RLU
RLU (Time 106.781 s): 887.982 RLU
RLU (Time 108.781 s): 886.297 RLU
RLU (Time 110.781 s): 884.059 RLU
RLU (Time 112.781 s): 887.824 RLU
RLU (Time 114.781 s): 848.107 RLU
RLU (Time 116.781 s): 861.685 RLU
RLU (Time 118.781 s): 828.869 RLU
RLU (Time 120.781 s): 825.037 RLU
RLU (Time 122.781 s): 836.581 RLU
RLU (Time 124.781 s): 866.188 RLU
RLU (Time 126.781 s): 858.575 RLU
RLU (Time 128.781 s): 826.803 RLU
RLU (Time 130.781 s): 818.964 RLU
RLU (Time 132.781 s): 847.33 RLU
RLU (Time 134.781 s): 852.99 RLU
RLU (Time 136.781 s): 809.769 RLU
RLU (Time 137.563 s): 804.878 RLU
RLU (Time 143.563 s): 793.514 RLU
RLU (Time 149.563 s): 748.056 RLU
RLU (Time 155.563 s): 797.54 RLU
RLU (Time 161.563 s): 777.219 RLU
RLU (Time 167.563 s): 736.981 RLU
RLU (Time 173.563 s): 734.04 RLU
RLU (Time 179.563 s): 691.98 RLU
RLU (Time 185.563 s): 705.69 RLU
RLU (Time 191.563 s): 730.013 RLU
RLU (Time 197.563 s): 719.476 RLU
RLU (Time 203.563 s): 676.213 RLU
RLU (Time 209.563 s): 680.042 RLU
RLU (Time 215.563 s): 670.332 RLU
RLU (Time 221.563 s): 696.914 RLU
RLU (Time 227.563 s): 687.176 RLU
RLU (Time 233.563 s): 674.703 RLU
RLU (Time 239.563 s): 658.755 RLU
RLU (Time 245.563 s): 686.39 RLU
RLU (Time 293.563 s): 673.116 RLU
RLU (Time 299.563 s): 656.796 RLU
RLU (Time 305.563 s): 663.675 RLU
RLU (Time 311.563 s): 633.551 RLU
RLU (Time 317.563 s): 673.002 RLU
RLU (Time 323.563 s): 666.023 RLU
RLU (Time 329.563 s): 652.752 RLU
RLU (Time 335.563 s): 658.256 RLU
RLU (Time 341.563 s): 702.617 RLU
RLU (Time 347.563 s): 659.503 RLU
RLU (Time 353.563 s): 654.507 RLU
RLU (Time 359.563 s): 650.344 RLU
Activation threshold concentration Tas2r126 (p < 0.01 vs empty vector): 100 µM
SMILES: C[C@H](CCC(=O)NCC(=O)O)[C@H]1CC[C@H]2[C@@H]3[C@H](O)C[C@@H]4C[C@H](O)CC[C@]4(C)[C@H]3C[C@H](O)[C@]12C [Glycocholic Acid, glycocholic acid]
